Our source for the IC50 values is ChEMBL document CHEMBL1125405, “Synthesis of alkoxy-substituted diaryl compounds and correlation of ring separation with inhibition of tubulin polymerization: differential enhancement of inhibitory effects under suboptimal polymerization reaction conditions” (J Med Chem, 1992).

Experiment [1] concerns the target T1, Tubulin (Bos taurus, UniProt Q6B856+Q862L2+Q862F3). Kind of experiment: Concentration required to inhibit the extent of glutamate-dependent tubulin polymerization by 50% at 37 degrees C(1.0 mM MgCl2). It is filed as functional.
Another experiment concerns HL-60. Kind of experiment: Cytotoxicity of compound against HL-60 human leukemia cells. In kind it is functional, cell-based.
For experiment [2], the target named is T1, Tubulin. The experiment in a line: Inhibition of glutamate-dependent tubulin polymerization at 30 degrees C(0.25 mM MgCl2). In kind it is functional.
Experiment [3] concerns L1210. The experiment in a line: Compound was tested for the inhibition of murine L1210 leukemia cells growth by 50%. In kind it is functional, cell-based. The conditions noted are these: Mus musculus.
Experiment [4] concerns L1210. The experiment in a line: Compound was tested for the inhibition of L1210 leukemia cells growth […]. The conditions noted are these: Mus musculus. In kind it is functional, cell-based.

A value given as a limit tells only on which side of the number the result lay.

Broadly, the IC50 is the midpoint of a concentration-inhibition curve. The low end stands for greater potency, the high end for weaker potency. On to `COc1ccc(Cc2cc(OC)c(OC)c(OC)c2)cc1O`, for which the IC50 was 7.7 µM against Tubulin [1], 0.1 µM in the experiment with HL-60, 2.3 µM at Tubulin [2] and 0.2 µM with L1210 [3]. Take `COc1ccc(CCCCc2cc(OC)c(OC)c(OC)c2)cc1O`: the IC50 on Tubulin [1] amounted to 30 µM; against Tubulin [2] it was 4.4 µM. With `CCOc1cc2c(cc1C(C)c1ccc(OC)cc1)OCO2` (stereo not given), at Tubulin [2], the IC50 was determined as 1.8 µM. That is a single-digit micromolar value. On to `COc1ccc(CCCCc2cc3c(cc2OC)OCO3)cc1`, for which the half-maximal inhibitory concentration (IC50) against Tubulin [2] came to 7.5 µM. Compared with the last molecule, the IC50 is about 4.2-fold higher.

On to `COc1ccc(CCCc2cc(OC)c(OC)c(OC)c2)cc1O`, for which the half-inhibitory concentration (IC50) against Tubulin [1] stood at 11 µM; in the experiment on HL-60 it was 0.3 µM; at Tubulin [2] it was 3 µM; in the experiment on L1210 [3] it was 0.4 µM. In the case of `COc1ccc(-c2cc(OC)c(OC)c(OC)c2)cc1O`, the half-inhibitory concentration (IC50) against Tubulin [1] and against Tubulin [2] was greater than 40 µM throughout. Molecule `COc1ccc(Cc2cc3c(cc2OC)OCO3)cc1` showed an IC50 against Tubulin [2] of 5.4 µM. Regarding `COc1c(-c2ccc(OC)c(=O)cc2)ccc(C=O)c1C=O`, the IC50 on Tubulin [1] was found to be 2.6 µM; on Tubulin [2], 1.2 µM. In the case of `COc1ccc(CCc2cc(OC)c(OC)c(OC)c2)cc1O`, the IC50 was 3.5 µM against Tubulin [1], 0.05 µM with HL-60, 1.6 µM against Tubulin [2] and 0.07 µM in the experiment with L1210 [4]. `COc1ccc(/C=C/Cc2cc3c(cc2OC)OCO3)cc1`: the IC50 against Tubulin [2] came to 3.9 µM. This counts as single-digit micromolar. Take `CCOc1cc2c(cc1C/C=C/c1ccc(OC)cc1)OCO2`: the IC50 against Tubulin [2] was 1.9 µM. `CCOc1cc2c(cc1/C=C\c1ccc(OC)cc1)OCO2`: the IC50 on Tubulin [2] was greater than 40 µM. At Tubulin [2], `COc1ccc(CCCc2cc3c(cc2OC)OCO3)cc1` returned a half-inhibitory concentration (IC50) of 3.8 µM.

For `COc1ccc(C(C)c2cc3c(cc2OC)OCO3)cc1` (stereo not given), on Tubulin [2], the IC50 is 2.5 µM. Same read-out and setting: then `COc1ccc(CCc2cc3c(cc2OC)OCO3)cc1`, with 8.8 µM; and `CCOc1cc2c(cc1CCc1ccc(OC)cc1)OCO2`, with 3.8 µM.

`CCOc1cc2c(cc1Cc1ccc(OC)cc1)OCO2`: on Tubulin [2], the IC50 worked out at 2 µM.

The molecule `CCOc1cc2c(cc1CCCc1ccc(OC)cc1)OCO2` displayed an IC50 against Tubulin [2] of 2.7 µM.
